Ten compounds from patent US9156810B2, “Treatment of inflammatory bowel disease” (ALLERGAN, INC., priority 2003, dated 2015) can be followed below.

A value given as a limit tells only on which side of the number the result lay.

Test [1] addresses T1, hEP4 (Homo sapiens (Human), UniProt P35408). Nature of the test: FLIPR calcium signal, HEK-293(EBNA) cells expressing hEP4/Gqs5. The note with it: bottom number in Table 2, read-out: hEP4 functional EC50. Type of test: cell-based. The protocol:
(§1) HEK-293(EBNA) cells, stably expressing one type or subtype of recombinant human prostaglandin receptors (prostaglandin receptors expressed: hDP/Gqs5; hEP1; hEP2/Gqs5; hEP3A/Gqi5; hEP4/Gqs5; hFP; hIP; hTP), were cultured in 100 mm culture dishes in high-glucose DMEM medium containing 10% fetal bovine serum, 2 mM 1-glutamine, 250 μg/ml geneticin (G418) and 200 μg/ml hygromycin B as selection markers, and 100 units/ml penicillin G, 100 μg/m streptomycin and 0.25 μg/m amphotericin B.
(§2) Cells were seeded at a density of 5×10^4 cells per well in Biocoat® Poly-D-lysine-coated black-wall, clear-bottom 96-well plates (Becton-Dickinson) and allowed to attach overnight in an incubator at 37° C. Cells were then washed two times with HBSS-HEPES buffer (Hanks Balanced Salt Solution without bicarbonate and phenol red, 20 mM HEPES, pH 7.4) using a Denley Cellwash plate washer (Labsystems). After 45 minutes of dye-loading in the dark, using the calcium-sensitive dye Fluo-4 AM at a final concentration of 2 μM, plates were washed four times with HBSS-HEPES buffer to remove excess dye leaving 100 μl in each well. Plates were re-equilibrated to 37° C. for a few minutes.
Cells were excited with an Argon laser at 488 nm, and emission was measured through a 510-570 nm bandwidth emission filter (FLIPR™, Molecular Devices, Sunnyvale, Calif.). […] The peak increase in fluorescence intensity was recorded for each well. On each plate, four wells each served as negative (HBSS-HEPES buffer) and positive controls (standard agonists: BW245C (hDP); PGE2 (hEP1; hEP2/Gqs5; hEP3A/Gqi5; hEP4/Gqs5); PGF2 (hFP); carbacyclin (hIP); U-46619 (hTP), depending on receptor). The peak fluorescence change in each drug-containing well was then expressed relative to the controls.
Compounds were tested in a high-throughput (HTS) or concentration-response (CoRe) format. In the HTS format, forty-four compounds per plate were examined in duplicates at a concentration of 10^−5 M. To generate concentration-response curves, four compounds per plate were tested in duplicates in a concentration range between 10^−5 and 10^−11 M. The duplicate values were averaged.

Test [2] has as its target T1, hEP4. Nature of the test: Radioligand binding ([3H]PGE2), HEK-293 cell membranes expressing EP4 receptor. The note with it: top number in Table 2. The procedure: (§3) HEK-293 cells stably expressing the human or feline FP receptor, or EP1, EP2, EP3, or EP4 receptors were washed with TME buffer, scraped from the bottom of the flasks, and homogenized for 30 sec using a Brinkman PT 10/35 polytron. TME buffer was added to achieve a final 40 ml volume in the centrifuge tubes (the composition of TME is 100 mM TRIS base, 20 mM MgCl2, […]; 10N HCl is added to achieve a pH of 7.4).
(§4) The cell homogenate was centrifuged at 19000 r.p.m. for 20 min at 4° C. using a Beckman Ti-60 rotor. The resultant pellet was resuspended in TME buffer to give a final 1 mg/ml protein concentration, as determined by Biorad assay. Radioligand binding competition assays vs. [^3H-]17-phenyl PGF2α, (5 nM) were performed in a 100 μl volume for 60 min. Binding reactions were started by adding plasma membrane fraction. The reaction was terminated by the addition of 4 ml ice-cold TRIS-HCl buffer and rapid filtration through glass fiber GF/B filters using a Brandel cell harvester. The filters were washed 3 times with ice-cold buffer and oven dried for one hour. Non-specific binding was determined with 10 uM unlabeled 17-phenyl PGF2α.
(§5) [^3H-] PGE2 (5 nM; specific activity 180 Ci mmol) was used as the radioligand for EP receptors. Binding studies employing EP1, EP2, EP3, EP4 were performed in duplicate in at least three separate experiments. A 200 μl assay volume was used. Incubations were for 60 min at 25° C. and were terminated by the addition of 4 ml of ice-cold 50 mM TRIS-HCl, followed by rapid filtration through Whatman GF/B filters and three additional 4 ml washes in a cell harvester (Brandel). Non-specific binding determined with 10^−5M of unlabeled PGE2.

Test [3] deals with hEP3D (Homo sapiens (Human), UniProt P43115). The experiment in a line: Radioligand binding ([3H]PGE2), HEK-293 cell membranes expressing EP3 receptor. The note with it: top number in Table 2. The protocol:
as §3, §4, §5

Test [4] addresses hTP (Homo sapiens (Human), UniProt P21731). Nature of the test: Table 2 top number, hTP (radioligand binding per footnote). The note with it: top number in Table 2.
For test [5], the target named is hEP1 (Homo sapiens (Human), UniProt P34995). Nature of the test: Radioligand binding ([3H]PGE2), HEK-293 cell membranes expressing EP1 receptor. The note with it: top number in Table 2. The protocol: as §3, §4, §5
The target in test [6] is hEP3A (Homo sapiens (Human), UniProt P43115). The experiment in a line: FLIPR calcium signal, HEK-293(EBNA) cells expressing hEP3A/Gqi5. Format: cell-based. The note with it: for EC50: bottom number in Table 2, read-out: hEP3A functional EC50. The procedure:
as §1, §2
Cells were excited with an Argon laser at 488 nm, and emission was measured through a 510-570 nm bandwidth emission filter (FLIPR™, Molecular Devices, Sunnyvale, Calif.). Drug solution was added in a 50 μl volume to each well to give the desired final concentration. The peak increase in fluorescence intensity was recorded for each well. On each plate, four wells each served as negative (HBSS-HEPES buffer) and positive controls (standard agonists: BW245C (hDP); PGE2 (hEP1; hEP2/Gqs5; hEP3A/Gqi5; hEP4/Gqs5); PGF2 (hFP); carbacyclin (hIP); U-46619 (hTP), depending on receptor). The peak fluorescence change in each drug-containing well was then expressed relative to the controls.
Compounds were tested in a high-throughput (HTS) or concentration-response (CoRe) format. In the HTS format, forty-four compounds per plate were examined in duplicates at a concentration of 10^−5 M. To generate concentration-response curves, four compounds per plate were tested in duplicates in a concentration range between 10^−5 and 10^−11 M. The duplicate values were averaged. In either, HTS or CoRe format each compound was tested on at least 3 separate plates using cells from different passages to give an n≧3.

In test [7] the target is hIP (Homo sapiens (Human), UniProt P43119). The experiment in a line: Table 2 top number, hIP (radioligand binding per footnote). The note with it: top number in Table 2.
The target in test [8] is T2, hEP2 (Homo sapiens (Human), UniProt P43116). The experiment in a line: Radioligand binding ([3H]PGE2), HEK-293 cell membranes expressing EP2 receptor. The note with it: top number in Table 2. The procedure:
as §3, §4, §5

The target of test [9] is hDP (Homo sapiens (Human), UniProt Q13258). Nature of the test: Table 2 top number, hDP (radioligand binding per footnote). The note with it: top number in Table 2.
Test [10] addresses T2, hEP2. The experiment in a line: FLIPR calcium signal, HEK-293(EBNA) cells expressing hEP2/Gqs5. Format: cell-based. The note with it: bottom number in Table 2, read-out: hEP2 functional EC50. The procedure: as §1
Cells were seeded at a density of 5×10^4 cells per well in Biocoat® Poly-D-lysine-coated black-wall, clear-bottom 96-well plates (Becton-Dickinson) and allowed to attach overnight in an incubator at 37° C. Cells were then washed two times with HBSS-HEPES buffer (Hanks Balanced Salt Solution without bicarbonate and phenol red, 20 mM HEPES, pH 7.4) using a Denley Cellwash plate washer (Labsystems). […]
Cells were excited with an Argon laser at 488 nm, and emission was measured through a 510-570 nm bandwidth emission filter (FLIPR™, Molecular Devices, Sunnyvale, Calif.). […] The peak increase in fluorescence intensity was recorded for each well. […] The peak fluorescence change in each drug-containing well was then expressed relative to the controls. […]

T2 sequence (P43116 whole entry): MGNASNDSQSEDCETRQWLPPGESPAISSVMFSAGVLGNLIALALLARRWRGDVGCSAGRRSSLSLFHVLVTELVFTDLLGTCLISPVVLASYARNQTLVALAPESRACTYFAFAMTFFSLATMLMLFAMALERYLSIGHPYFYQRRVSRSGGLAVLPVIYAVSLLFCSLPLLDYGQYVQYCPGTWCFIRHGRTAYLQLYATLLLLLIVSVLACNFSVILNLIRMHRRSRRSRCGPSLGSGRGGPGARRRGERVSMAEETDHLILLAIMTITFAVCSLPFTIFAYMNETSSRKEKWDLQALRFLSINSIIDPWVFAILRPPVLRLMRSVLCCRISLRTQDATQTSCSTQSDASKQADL
Sequence of hEP3D (P43115 other isoform, or with tags, fused parts or gaps): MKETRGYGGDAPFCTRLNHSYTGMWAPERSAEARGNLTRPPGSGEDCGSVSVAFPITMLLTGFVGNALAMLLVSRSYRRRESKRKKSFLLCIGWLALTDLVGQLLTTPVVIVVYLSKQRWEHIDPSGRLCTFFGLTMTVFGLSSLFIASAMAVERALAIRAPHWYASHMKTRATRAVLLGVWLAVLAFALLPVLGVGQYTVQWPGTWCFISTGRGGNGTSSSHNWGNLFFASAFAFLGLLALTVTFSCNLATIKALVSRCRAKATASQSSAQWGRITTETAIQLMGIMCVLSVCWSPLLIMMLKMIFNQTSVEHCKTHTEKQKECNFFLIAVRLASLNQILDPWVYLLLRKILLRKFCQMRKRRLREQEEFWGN
Sequence of hTP (P21731 whole entry): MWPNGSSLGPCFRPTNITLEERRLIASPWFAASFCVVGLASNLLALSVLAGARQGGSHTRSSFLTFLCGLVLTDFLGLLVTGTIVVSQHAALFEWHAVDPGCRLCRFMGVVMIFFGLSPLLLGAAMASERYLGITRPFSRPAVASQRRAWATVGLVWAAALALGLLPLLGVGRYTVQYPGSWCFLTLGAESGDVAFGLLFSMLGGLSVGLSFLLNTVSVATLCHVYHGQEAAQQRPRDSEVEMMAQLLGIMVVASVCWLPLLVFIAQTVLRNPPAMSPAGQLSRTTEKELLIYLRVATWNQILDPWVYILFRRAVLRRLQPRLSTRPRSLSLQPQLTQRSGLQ
Sequence of hIP (P43119 whole entry): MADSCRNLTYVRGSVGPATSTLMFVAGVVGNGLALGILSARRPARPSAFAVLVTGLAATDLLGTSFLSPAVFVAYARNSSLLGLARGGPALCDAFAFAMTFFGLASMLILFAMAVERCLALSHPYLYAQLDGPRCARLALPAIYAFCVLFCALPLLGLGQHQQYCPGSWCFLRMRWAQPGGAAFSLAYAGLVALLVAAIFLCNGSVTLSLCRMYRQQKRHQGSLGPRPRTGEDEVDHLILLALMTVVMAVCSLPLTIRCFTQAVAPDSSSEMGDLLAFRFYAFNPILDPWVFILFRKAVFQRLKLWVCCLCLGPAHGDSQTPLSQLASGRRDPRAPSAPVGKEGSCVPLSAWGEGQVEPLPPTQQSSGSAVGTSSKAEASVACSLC
Sequence of hEP3A (P43115 whole entry): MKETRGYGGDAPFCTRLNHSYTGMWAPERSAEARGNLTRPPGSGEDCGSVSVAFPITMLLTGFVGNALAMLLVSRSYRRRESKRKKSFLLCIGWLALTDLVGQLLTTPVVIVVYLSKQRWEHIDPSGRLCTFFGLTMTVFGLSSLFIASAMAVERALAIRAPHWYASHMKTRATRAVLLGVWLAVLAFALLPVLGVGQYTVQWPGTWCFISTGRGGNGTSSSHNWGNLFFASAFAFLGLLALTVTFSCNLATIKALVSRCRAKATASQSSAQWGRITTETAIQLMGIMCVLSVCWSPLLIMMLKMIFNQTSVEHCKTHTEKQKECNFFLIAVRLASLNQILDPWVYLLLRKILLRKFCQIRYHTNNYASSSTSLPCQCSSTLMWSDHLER
T1 sequence (P35408 whole entry, looked up): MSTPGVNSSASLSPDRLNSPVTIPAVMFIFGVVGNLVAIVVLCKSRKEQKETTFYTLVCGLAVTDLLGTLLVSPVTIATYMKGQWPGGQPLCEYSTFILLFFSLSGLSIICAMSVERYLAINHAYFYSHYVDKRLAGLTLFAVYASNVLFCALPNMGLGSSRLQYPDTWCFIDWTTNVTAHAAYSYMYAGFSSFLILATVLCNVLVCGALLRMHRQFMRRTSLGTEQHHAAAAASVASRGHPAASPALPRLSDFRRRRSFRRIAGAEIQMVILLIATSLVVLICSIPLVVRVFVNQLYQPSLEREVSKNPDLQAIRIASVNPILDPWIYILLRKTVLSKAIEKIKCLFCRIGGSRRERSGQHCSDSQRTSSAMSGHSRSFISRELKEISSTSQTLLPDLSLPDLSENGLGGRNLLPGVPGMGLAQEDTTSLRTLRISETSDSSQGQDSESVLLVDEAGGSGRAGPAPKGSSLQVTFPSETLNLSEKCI
Sequence of hEP1 (P34995 whole entry): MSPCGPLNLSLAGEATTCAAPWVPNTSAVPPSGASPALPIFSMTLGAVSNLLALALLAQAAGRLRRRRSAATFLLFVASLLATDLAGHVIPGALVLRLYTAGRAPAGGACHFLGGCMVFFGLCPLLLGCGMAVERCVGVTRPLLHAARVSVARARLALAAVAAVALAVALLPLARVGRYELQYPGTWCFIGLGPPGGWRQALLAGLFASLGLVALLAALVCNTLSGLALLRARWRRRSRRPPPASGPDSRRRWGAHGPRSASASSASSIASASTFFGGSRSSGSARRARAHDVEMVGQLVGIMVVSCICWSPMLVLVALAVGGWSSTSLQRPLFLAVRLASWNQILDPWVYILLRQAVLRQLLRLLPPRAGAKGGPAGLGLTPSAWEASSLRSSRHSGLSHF
Sequence of hDP (Q13258 whole entry): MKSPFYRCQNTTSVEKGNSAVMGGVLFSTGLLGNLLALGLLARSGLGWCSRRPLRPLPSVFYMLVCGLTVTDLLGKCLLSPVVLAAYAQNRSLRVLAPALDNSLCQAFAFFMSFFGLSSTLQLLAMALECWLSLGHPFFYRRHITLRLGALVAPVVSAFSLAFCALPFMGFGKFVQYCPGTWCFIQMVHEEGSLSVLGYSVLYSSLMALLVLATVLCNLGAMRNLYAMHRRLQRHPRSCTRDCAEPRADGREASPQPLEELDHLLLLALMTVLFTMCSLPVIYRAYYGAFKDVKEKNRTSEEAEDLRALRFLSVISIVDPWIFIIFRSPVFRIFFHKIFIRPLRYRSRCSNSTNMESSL

Broadly, the EC50 is the concentration needed to bring the measured effect to its halfway point. The term IC50 denotes the concentration needed to halve the response being measured. For the compound `COC(=O)CCC/C=C\C[C@H]1C(=O)C(C)(C)[C@@H](O)[C@@H]1/C=C/C(O)CCc1ccccc1` (single isomer, unassigned) [Compound 50], the EC50 in test [1] is 3160 nM. Further, the IC50 was found to be 2400 nM in test [2], 6610 nM in [3] and 638 nM in test [5]. In addition, the hTP radioligand binding IC50 in test [4] was > 10000 nM. Besides, the hEP3A functional EC50 in test [6] (bottom number in Table 2) is > 10000 nM.

Consider `CCCCC[C@H](O)/C=C/[C@@H]1[C@@H](CC#CCCCC(=O)O)C(=O)C(C)(C)[C@H]1O` [Compound 43, 7-[(1R,4S,5R)-4-Hydroxy-5-((E)-(S)-3-hydroxy-oct-1-enyl)-3,3-dimethyl-2-oxo-cyclopentyl]-hept-5-ynoic acid], for which the figures for the EC50 in test [1] and in [6] were 63 nM and 11 nM, respectively. Moreover, the IC50 in test [2] is 400 nM; in [3] it was 1700 nM; in test [4] it was 18 nM; in [5], > 10000 nM; in test [7], 3980 nM.

Take `CCCCC[C@H](O)/C=C/[C@@H]1[C@@H](C/C=C\CCCC(=O)OC)C(=O)C(C)(C)[C@H]1O` [Compound 45, (Z)-7-[(1R,4S,5R)-4-Hydroxy-5-((E)-(S)-3-hydroxy-oct-1-enyl)-3,3-dimethyl-2-oxo-cyclopentyl]-hept-5-enoic acid methyl ester]: the EC50 in [1] worked out at 51 nM; in [6], 531 nM. Besides, the IC50 in test [2] is 400 nM; in [3], > 10000 nM; in test [4], 631 nM.

Regarding `CCCCC[C@H](O)/C=C/[C@@H]1[C@@H](CC#CCCCC(=O)OC)C(=O)C(C)(C)[C@H]1O` [Compound 42, 7-[(1R,4S,5R)-4-Hydroxy-5-((E)-(S)-3-hydroxy-oct-1-enyl)-3,3-dimethyl-2-oxo-cyclopentyl]-hept-5-ynoic acid methyl ester], the IC50 in test [2] and in [3] was > 10000 nM throughout. In addition, in test [6], the concentration for a half-maximal effect (EC50) was 559 nM.

With `COC(=O)CSCCCS[C@H]1C(=O)C(C)(C)[C@@H](O)[C@@H]1/C=C/C(O)CCc1sc2ccccc2c1Cl` (single isomer, unassigned) [Compound 21], the IC50 in test [2] came to 98 nM. Further, the hEP2 radioligand binding IC50 in [8] is > 10000 nM.

`CC1(C)C(=O)[C@H](C/C=C\CCCC(=O)O)[C@@H](/C=C/C(O)CCc2sc3ccccc3c2Cl)[C@@H]1O` (single isomer, unassigned) [Compound 41] gave a half-inhibitory concentration (IC50) in test [2] of 20 nM. In addition, in [4], the hTP radioligand binding IC50 was > 10000 nM. In addition, the hEP2 radioligand binding IC50 in test [8] is > 10000 nM.

On to `CC1(C)C(=O)[C@H](CC#CCCCC(=O)O)[C@@H](/C=C/C(O)CCc2sc3ccccc3c2Cl)[C@@H]1O` (single isomer, unassigned) [Compound 36], for which the concentration for a half-maximal effect (EC50) in [1] was 66 nM. In test [2], this compound registered a concentration for half-maximal inhibition (IC50) of 200 nM. Moreover, the hIP radioligand binding IC50 in test [7] is > 10000 nM.

Regarding `CCCCC[C@H](O)/C=C/[C@@H]1[C@@H](C/C=C\CCCC(=O)O)C(=O)C(C)(C)[C@H]1O` [Compound 44, (Z)-7-[(1R,4S,5R)-4-Hydroxy-5-((E)-(S)-3-hydroxy-oct-1-enyl)-3,3-dimethyl-2-oxo-cyclopentyl]-hept-5-enoic acid], the EC50 came to 0.2 nM in [1], 4.6 nM in test [6] and 944 nM in [10]. For the same compound, the IC50 in [2] came to 5.5 nM; in [3] it was 300 nM; in [4], 18 nM; in test [5], 782 nM; in [7], 284 nM; in test [8], 1500 nM. Moreover, the hDP radioligand binding IC50 in [9] is > 10000 nM.

With `CC1(C)C(=O)[C@H](CC#CCCCC(=O)O)[C@@H](/C=C/C(O)CCc2sc3ccccc3c2Cl)[C@@H]1O` (single isomer, unassigned) [Compound 37], the 50% effective concentration (EC50) in test [1] is 32 nM. Also, in [2], the concentration for half-maximal inhibition (IC50) worked out at 100 nM. Further, in test [7], the hIP radioligand binding IC50 was > 10000 nM.

With `CC1(C)C(=O)[C@H](C/C=C\CCCC(=O)O)[C@@H](/C=C/C(O)Cc2ccccc2)[C@@H]1O` (single isomer, unassigned) [Compound 46], the concentration for a half-maximal effect (EC50) in test [1] worked out at 0.4 nM; in test [6] it was 589 nM. Also, the values for the IC50 in [2] and in [5] were 4 nM and 290 nM, respectively. Further, in test [3], the hEP3D radioligand binding IC50 was > 10000 nM. The hEP2 radioligand binding IC50 in test [8] was > 10000 nM.
